Source: US7598244B2, “[1,2,4]triazolo[1,5,a]pyrimidin-2-ylurea derivative and use thereof” (Nippon Kayaku Kabushiki Kaisha, priority 2003, dated 2009)

What was measured:
Assay type in all cases: cell-based
[1] = tested on: MHC class I molecules of human peripheral blood-derived dendritic cells; test: Effect on expression of MHC class I molecules from human peripheral blood-derived dendritic cells; settings: dendritic cells matured with TNF-α, 3 days; read-out: EC50 (reduction of 50% of the number of cells wherein MHC class I molecules were highly expressed)
Outline: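 Human blood CD14+ monocytes differentiated 7 days with GM-CSF 500 U/ml and IL-4 50 ng/ml into immature dendritic cells. These were matured with 100 U/ml TNF-α plus test compound for 3 days at 37 °C. MHC class I-high fraction measured by flow cytometry (W6/32 antibody); EC50 is concentration giving 50% reduction versus untreated.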

[2] = tested on: human dendritic cells cultured with human allogenic T cells; test: Effect on the ability of human dendritic cells to induce the growth of allogenic T cells ([3H]-thymidine incorporation); settings: Homo sapiens; dendritic cells treated 3 days with test compound and TNF-α, then 5 days with allogenic T cells; read-out: IC50 (inhibition of DNA synthesis of lymphocytes)
Outline: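 Immature human dendritic cells matured 3 days with compound plus TNF-α, then co-cultured with allogeneic T cells (2.5×10^3 DC : 2.0×10^5 T per well) for 5 days at 37 °C, 5% CO2. [3H]-thymidine added for the final 16 h; incorporation counted, inhibition versus compound-free cultures, IC50 derived.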

MHC class I = test: Expression of antigen-presenting and costimulatory molecules of human peripheral blood-derived dendritic cells: MHC class I
Procedure: (§1) Action on Expression of Antigen-Presenting Molecules and Costimulatory Molecules of Human Peripheral Blood-Derived Dendritic Cells
(§2) The dendritic cells obtained by the same method as in Test Example 2 were suspended in RPMI 1640 comprising 10% FCS containing 500 U/ml GM-CSF, 50 ng/ml IL-4, and 100 U/ml human recombinant tumor necrosis factor (2.5×10^6 cells/ml). Thereafter, the suspension was inoculated into a 6-well plate at an amount of 2.0 ml/well, and the test compound was then added thereto. The mixture was cultured at 37° C. for 3 days in an incubator containing 5% carbon dioxide. Thereafter, the suspended cells were recovered. The cells were then stained with fluoroisothiocyanate-labeled mouse monoclonal antibodies reacting with MHC class I (Bechman Coulter), CD1a (Immunotech), CD40 (Pharmingen), CD80 (Pharmingen), and CD83 (Immunotech). Thereafter, mean fluorescence intensity and the ratio of positive cells were measured by flow cytometry. The expression level was calculated by the formula “the mean fluorescence intensity x the ratio of positive cells,” and the inhibition rate of the surface antigen expression level of dendritic cells was then obtained by the following formula (8).
(§3) [formula] • Eexp: Expression level of surface antigens of dendritic cells cultured in the presence of test compound • Cexp: Expression level of surface antigens of dendritic cells cultured in the absence of test compound

CD40 = test: Expression of antigen-presenting and costimulatory molecules of human peripheral blood-derived dendritic cells: CD40
Procedure: as §1, §2, §3

With `CC(C)NC(=O)Nc1nc2nccc(-c3cccs3)n2n1` [Example 029, 1-isopropyl-3-(7-thiophen-2-yl[1,2,4]triazolo[1,5-a]pyrimidin-2-yl)urea] the EC50 [1] was 480 nM, the IC50 [2] was 3480 nM and the “Expression inhibition rate by test compound (%), MHC class I” value (MHC class I; Analyte 1, 3 days) was 72.3%. For the same compound, the “Expression inhibition rate by test compound (%), MHC class I” value (MHC class I; Analyte 2, 3 days) was 63.9%, the “Expression inhibition rate by test compound (%), MHC class I” value (MHC class I; Analyte 3, 3 days) was 72.6% and the “Expression inhibition rate by test compound (%), CD40” value (CD40; Analyte 1, 3 days) was 10.8%. For the same compound, the “Expression inhibition rate by test compound (%), CD40” value (CD40; Analyte 2, 3 days) was −5.4% and the “Expression inhibition rate by test compound (%), CD40” value (CD40; Analyte 3, 3 days) was 12.9%.
